The nature of series [1]: HPLC measurement of the solubility of the anti-estrogen in an aqueous solution of 2-hydroxypropyl cyclodextrin. In kind it is physicochemical. The settings on record: room temperature; for solubility: read-out: Toremifene solubility (mg of toremifene / ml of cyclodextrin-water soln.). The protocol: A weighed amount of 2-hydroxypropyl cyclodextrin was dissolved into distilled water by shaking with a shaker. The so formed clear solution was equilibrated with a large excess of antiestrogen at the boiling point. […] The solution was kept overnight at room temperature and the excess of precipitated antiestrogen was removed by centrifugation.
The separations were carried out at room temperature on a 35 * 4.6 mm stainless steel column (packed with 3-μm spherical octadecylsilanebonded silica particles; HS-3 C-18, (Perkin-Elmer, USA)
The mobile phase consisted of a mixture of acetonitrile: 0.05 M aqueous phosphate buffer containing 0.004 M of dimethyloctyl amine with a pH of 7.4. The flow rate was 0.8 ml/min.

The subject of the next series is multidrug resistance. The settings on record: high vs low plasma concentrations; J Clinical Oncology 1989; cited from earlier work.
The nature of series [2]: Toremifene concentration in emulsion (Emulsan 20%) after filtration, spectrophotometric at 278 nm. In kind it is physicochemical. The settings on record: for Concentration after filtration: toremifene citrate in Emulsan 20%. The protocol: Emulsions prepared by dissolving the drug in a commercial fat emulsion.
The commercial fat emulsion used was Emulsan®20% (manufacturer Leiras-Kabi Infusion Ltd., Finland). […] The toremifene concentrations were 10 mg/ml, 14 mg/ml and 20 mg/ml. After the homogenization the samples were filtered through the 0.2 μm, 0.45 μm and 1.2 μm filters.
The concentration of toremifene was determined from the filtrate with a spectrofotometric method using the wave length of 278 nm. The samples were dissolved in methanol and diluted in the concentration of 0.02 mg/ml.

SMILES strings stand for the structures. Converted amounts (≈) assume the structure as drawn. Like-named read-outs stand apart in the source and are kept apart here.

For `CNCCOc1ccc(/C(=C(/CCCl)c2ccccc2)c2ccccc2)cc1` [desmethyl toremifene], the Desmethyl toremifene solubility (ml of desmethyl toremifene / ml of cyclodextrin-water soln.) in series [1] (125 mg β-HPC/ml of aqueous soln.) is 21 mg/mL.
For `CN(C)CCOc1ccc(/C(=C(/CCCl)c2ccccc2)c2ccccc2)cc1` [toremifene], in the series on multidrug resistance, the reversing multidrug resistance result is on record as “more effective in reversing multidrug resistance than low concentrations”. The Concentration after filtration in series [2] (10 mg/ml before filtration, 0.2 μm filter) came to 4.4 mg/mL; in series [2] (10 mg/ml before filtration, 0.45 μm filter) it was 4.0 mg/mL; in series [2] (10 mg/ml before filtration, 1.2 μm filter), 4.4 mg/mL; in series [2] (14 mg/ml before filtration, 0.45 μm filter), 4.3 mg/mL; in series [2] (14 mg/ml before filtration, 1.2 μm filter) it was 3.7 mg/mL; in series [2] (20 mg/ml before filtration, 0.45 μm filter), 3.6 mg/mL. In series [2] (20 mg/ml before filtration, 1.2 μm filter), this compound registered a Concentration after filtration of 3.6 mg/mL. The “solubility of toremifene by encapsulating in an emulsion droplet” value in series [2] (emulsion droplet) was “can be increased considerably”. Besides, the solubility in series [1] (aqueous 2-hydroxypropyl cyclodextrin solution, 500 mg β-HPC/ml of aqueous soln.) amounted to 87.7 mg/mL (≈ 216 mM); in series [1] (aqueous β-hpc solution, 25 mg/ml, 25 mg β-HPC/ml of aqueous soln.) it was 7.4 mg/mL (≈ 18.2 mM); in series [1] (aqueous β-hpc solution, 63 mg/ml, 63 mg β-HPC/ml of aqueous soln.), 14.1 mg/mL (≈ 34.7 mM); in series [1] (aqueous β-hpc solution, 125 mg/ml, 125 mg β-HPC/ml of aqueous soln.) it was 21.7 mg/mL (≈ 53.5 mM); in series [1] (aqueous β-hpc solution, 250 mg/ml, 250 mg β-HPC/ml of aqueous soln.), 53 mg/mL (≈ 131 mM); in series [1] (aqueous γ-hpc solution, 125 mg/ml, 125 mg Γ-HPC/ml of aqueous soln.) it was 36.3 mg/mL (≈ 89.4 mM). Further, the solubility came out at 61.1 mg/mL (≈ 151 mM) in series [1] (aqueous γ-hpc solution, 250 mg/ml, 250 mg Γ-HPC/ml of aqueous soln.); 125 mg/mL (≈ 309 mM) in series [1] (aqueous γ-hpc solution, 500 mg/ml, 500 mg Γ-HPC/ml of aqueous soln.); 0.3 mg/mL (≈ 0.739 mM) in series [1] (water, 0 mg β-HPC/ml of aqueous soln.).

(Values after patent US5571534A, “Drug formulations for parenteral use” (Orion-yhtyma Oy, priority 1991, dated 1996).)
